Reference: patent US10508088B2, “Methods using HDAC11 inhibitors” (FORMA Therapeutics, Inc., priority 2016, dated 2019)

biological target: Recombinant N-terminal GST tag full-length human HDAC11 (Homo sapiens (Human), UniProt Q96DB2); test: Probe binding HDAC11 assay, time resolved fluorescence (TRF); settings: read-out: HDAC11 IC50 Range
Description: The probe binding HDAC11 assay was performed using a time resolved fluorescence (TRF) assay format. Recombinant N-terminal GST tag full-length human HDAC11 was expressed and purified from baculovirus in Sf9 insect cells (SignalChem, # H93-30G-1000). Each assay was performed in 1536 black well microplates (Corning, #3936) in a final volume of 8 μL in assay buffer containing 50 mM HEPES (pH 7.5), 50 mM KCl, 50 mM NaCl, 0.5 mM GSH (L-Glutathione reduced, Sigma #G4251), 0.03% BGG (0.22 μM filtered, Sigma, #G7516-25G), and 0.01% Triton X-100 (Sigma, #T9284-10L). 100 nL of 10-point, 3-fold serial dilution in DMSO was pre-dispensed into respective wells of 1536 assay plates for a final test concentration range of 25 μM to 1.3 nM respectively. The final concentration in the assay of HDAC11 and probe (a fluorescein labeled HDAC 11 inhibitor) was 2.5 nM and 20 nM respectively. 4 μL of 2× probe and 2× anti-GST Terbium (Cisbio, #61GSTXLB) was added to assay plates followed by 4 μL of 2×HDAC11. Plates were incubated for 16 hours at room temperature before time resolved fluorescence was read on the Envision (Excitation at 340 nm, and Emission at 485 nm and 535 nm, Perkin Elmer).
Data from HDAC11 Assays were reported as percent inhibition (inh) compared with control wells based on the following equation: % inh=1−((FLU−AveLow)/(AveHigh−AveLow)) where FLU=measured time resolved fluorescence. AveLow=average time resolved fluorescence of no enzyme control (n=32). AveHigh=average time resolved fluorescence of DMSO control (n=32). IC50 values were determined by curve fitting of the standard 4 parameter logistic fitting algorithm included in the Activity Base software package: IDBS XE Designer Model205. Data is fitted using the Levenburg Marquardt algorithm.

Sequence of Recombinant N-terminal GST tag full-length human HDAC11 (Q96DB2 whole entry): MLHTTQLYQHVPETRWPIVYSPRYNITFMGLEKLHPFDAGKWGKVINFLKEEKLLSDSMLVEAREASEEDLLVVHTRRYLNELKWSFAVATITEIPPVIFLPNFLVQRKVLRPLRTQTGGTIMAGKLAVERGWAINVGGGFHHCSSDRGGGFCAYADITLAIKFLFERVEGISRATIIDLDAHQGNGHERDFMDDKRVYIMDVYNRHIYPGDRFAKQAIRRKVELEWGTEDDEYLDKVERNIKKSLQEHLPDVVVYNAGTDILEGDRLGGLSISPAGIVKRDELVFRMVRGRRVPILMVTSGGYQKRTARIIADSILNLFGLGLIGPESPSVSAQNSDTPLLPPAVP

Structure (SMILES) | IC50 [nM]
O=C(NO)c1cccc(Nc2nc3cc4c(cc3[nH]2)OCCO4)c1 [Example 33-9, 3-((6,7-dihydro-1H-[1,4]dioxino[2′,3′:4,5]benzo[1,2-d]imidazol-2-yl)amino)-N-hydroxybenzamide] | 500 to 1000
O=C(NO)c1cccc(Nc2nc3cc(-c4ccncc4)c(C(F)(F)F)cc3[nH]2)c1 [Example 36-3, N-hydroxy-3-((5-(pyridin-4-yl)-6-(trifluoromethyl)-1H-benzo[d]imidazol-2-yl)amino)benzamide] | < 500
O=C(NO)c1cccc(Nc2nc3cc(Br)c(OC(F)(F)F)cc3[nH]2)c1 [Example 33-7, 3-((5-bromo-6-(trifluoromethoxy)-1H-benzo[d]imidazol-2-yl)amino)-N-hydroxybenzamide] | < 500
N#Cc1cc2oc(Nc3cccc(C(=O)NO)c3)nc2cc1C(F)(F)F [Example 2-1, 3-(6-cyano-5-(trifluoromethyl)benzo[d]oxazol-2-ylamino)-N-hydroxybenzamide] | < 500
O=C(NO)c1cccc(Nc2nc3cc(C(F)(F)F)c(-c4ccoc4)cc3[nH]2)c1 [Example 36-20, 3-((6-(furan-3-yl)-5-(trifluoromethyl)-1H-benzo[d]imidazol-2-yl)amino)-N-hydroxybenzamide] | < 500
COCCn1c(Nc2cc(C(=O)NO)c3ccccc3c2)nc2ccccc21 [Example 23-3, N-hydroxy-3-((1-(2-methoxyethyl)-1H-benzo[d]imidazol-2-yl)amino)-1-naphthamide] | > 1000
CS(=O)(=O)c1ccc2[nH]c(Nc3cccc(C(=O)NO)c3)nc2c1 [Example 33-23, N-hydroxy-3-((5-(methylsulfonyl)-1H-benzo[d]imidazol-2-yl)amino)benzamide] | > 1000
O=C(NO)c1cc(Nc2nc3cc(Cl)c(Cl)cc3o2)ccc1F [Example 4-1, 5-(5,6-dichlorobenzo[d]oxazol-2-ylamino)-2-fluoro-N-hydroxybenzamide] | < 500
O=C(NO)c1cccc(Nc2nc3cc(Cl)c(Cl)cc3s2)c1 [Example 5-1, 3-(5,6-dichlorobenzo[d]thiazol-2-ylamino)-N-hydroxybenzamide 2,2,2-trifluoroacetate] | < 500
CN(C)C(=O)c1ccc(-c2cc3[nH]c(Nc4cccc(C(=O)NO)c4)nc3cc2C(F)(F)F)cc1 [Example 36-6, 4-(2-((3-(hydroxycarbamoyl)phenyl)amino)-5-(trifluoromethyl)-1H-benzo[d]imidazol-6-yl)-N,N-dimethylbenzamide] | < 500
O=C(NO)c1cccc(Nc2nc3ncc(C(F)(F)F)cc3o2)c1 [Example 32-2, N-hydroxy-3-((6-(trifluoromethyl)oxazolo[4,5-b]pyridin-2-yl)amino)benzamide] | < 500
O=C(NO)c1ccnc(Nc2nc3cc(Cl)c(Cl)cc3o2)n1 [Example 4-8, 2-((5,6-dichlorobenzo[d]oxazol-2-yl)amino)-N-hydroxypyrimidine-4-carboxamide] | > 1000
O=C(NO)c1cc(Nc2nc3ccccc3[nH]2)cc2ccccc12 [Example 23-2, 3-((1H-benzo[d]imidazol-2-yl)amino)-N-hydroxy-1-naphthamide] | > 1000
CC(C)n1c(Nc2cccc(C(=O)NO)c2)nc2cc(Cl)c(Cl)cc21 [Example 17-1, 3-(5,6-dichloro-1-isopropyl-1H-benzo[d]imidazol-2-ylamino)-N-hydroxybenzamide] | < 500
O=C1COc2cc3[nH]c(Nc4cccc(C(=O)NO)c4)nc3cc2N1 [Example 33-18, N-hydroxy-3-((7-oxo-3,6,7,8-tetrahydroimidazo[4′,5′:4,5]benzo[1,2-b][1,4]oxazin-2-yl)amino)benzamide] | > 1000
CN(c1cccc(C(=O)NO)c1)c1nc2cc(C(F)(F)F)c(-c3ccccc3)cc2n1C [Example 34-3, N-hydroxy-3-(methyl(1-methyl-6-phenyl-5-(trifluoromethyl)-1H-benzo[d]imidazol-2-yl)amino)benzamide] | 500 to 1000
N#Cc1cc2nc(Nc3cccc(C(=O)NO)c3)n(CCCCCN)c2cc1C(F)(F)F [Example 21-1, 3-((1-(5-aminopentyl)-5-cyano-6-(trifluoromethyl)-1H-benzo[d]imidazol-2-yl)amino)-N-hydroxybenzamide] | < 500
O=C(NO)c1ccnc(Nc2nc3cc(Cl)c(Cl)cc3o2)c1 [Example 4-7, 2-((5,6-dichlorobenzo[d]oxazol-2-yl)amino)-N-hydroxyisonicotinamide] | < 500
O=C(NO)c1cccc(Nc2nc3cc(Br)c(C(F)(F)F)cc3[nH]2)c1 [Example 33-11, 3-((5-bromo-6-(trifluoromethyl)-1H-benzo[d]imidazol-2-yl)amino)-N-hydroxybenzamide] | < 500
CN(c1cccc(C(=O)NO)c1)c1nc2cc(-c3cccnc3)c(C(F)(F)F)cc2n1C [Example 34-1, N-hydroxy-3-(methyl(1-methyl-5-(pyridin-3-yl)-6-(trifluoromethyl)-1H-benzo[d]imidazol-2-yl)amino)benzamide] | > 1000
Cc1cc2[nH]c(Nc3cccc(C(=O)NO)c3)nc2cc1F [Example 33-10, 3-((5-fluoro-6-methyl-1H-benzo[d]imidazol-2-yl)amino)-N-hydroxybenzamide] | < 500
CN(c1cccc(C(=O)NO)c1)c1nc2cc(C(F)(F)F)c(-c3cccnc3)cc2n1C [Example 34-2, N-hydroxy-3-(methyl(1-methyl-6-(pyridin-3-yl)-5-(trifluoromethyl)-1H-benzo[d]imidazol-2-yl)amino)benzamide] | > 1000
O=C(NO)c1cccc(Nc2nc3cc(C(F)(F)F)c(-c4ccc5ncccc5c4)cc3[nH]2)c1 [Example 36-8, N-hydroxy-3-((6-(quinolin-6-yl)-5-(trifluoromethyl)-1H-benzo[d]imidazol-2-yl)amino)benzamide] | < 500
NS(=O)(=O)c1ccc2[nH]c(Nc3cccc(C(=O)NO)c3)nc2c1 [Example 33-24, N-hydroxy-3-((5-sulfamoyl-1H-benzo[d]imidazol-2-yl)amino)benzamide] | > 1000
CC(C)n1c(Nc2cccc(C(=O)NO)c2)nc2cc(C(F)(F)F)c(C#N)cc21 [Example 14-1, 3-(6-cyano-1-isopropyl-5-(trifluoromethyl)-1H-benzo[d]imidazol-2-ylamino)-N-hydroxybenzamide] | < 500
Cn1c(Nc2cccc(C(=O)NO)c2)nc2cc(Cl)c(Cl)cc21 [Example 13-1, 3-(5,6-dichloro-1-methyl-1H-benzo[d]imidazol-2-ylamino)-N-hydroxybenzamide] | < 500
O=C(NO)c1cccc(Nc2nc3cc(F)c(C(F)(F)F)cc3[nH]2)c1 [Example 33-5, 3-((5-fluoro-6-(trifluoromethyl)-1H-benzo[d]imidazol-2-yl)amino)-N-hydroxybenzamide] | < 500

biological target: Full length human recombinant HDAC11 (Homo sapiens (Human), UniProt Q96DB2); test: Enzymatic HDAC11 assay, electrophoretic mobility shift; format: biochemical; settings: substrate FAM-RHKK(tri-fluor-Ac)-NH2, read-out: HDAC11 IC50 Range
Description: The enzymatic HDAC11 assay was performed using electrophoretic mobility shift assay. Full length human recombinant HDAC11 protein was expressed in baculoviral system and purified by affinity chromatography. The enzymatic reactions were assembled in 384 well plates in a total volume of 25 μL in a reaction buffer composing: 100 mM HEPES, pH 7.5, 25 mM KCl, 0.1% bovine serum albumin, 0.01% Triton X-100, 1% DMSO (from compounds) 2 μM of the fluorescently labeled peptide substrate and enzyme. The enzyme was added at a final concentration of 10 nM. The peptide substrate FAM-RHKK(tri-fluor-Ac)-NH2 was used. The compounds were tested at 12 concentrations spaced by 3× dilution intervals. Negative control samples (0%-inhibition in the absence of inhibitor) and positive control samples (100%-inhibition) were assembled in replicates of four in each assay plate. The reactions were incubated at 25° C. and quenched by the addition of 45 μL of termination buffer (100 mM HEPES, pH 7.5, 0.01% Triton X-100, 0.05% SDS).
The terminated assay plates were analyzed on LabChip® 3000 microfluidic electrophoresis instrument (Perkin Elmer/Caliper Life Sciences). The fluorescence intensity of the electrophoretically separated de-acetylated product and substrate peptide was measured. Activity in each sample was determined as the product to sum ratio (PSR):P/(S+P), where P is the peak height of the product peptide and S is the peak height of the substrate peptide. Percent inhibition (Pinh) is determined using the following equation: Pinh=(PSR0%−PSRinh)/(PSR0%−PSR100%)*100,
where PSRinh is the product sum ratio in the presence of inhibitor, PSR0% is the average product sum ration in the absence of inhibitor and PSR100% is the average product sum ratio in 100%-inhibition control samples. The IC50 values of inhibitors were determined by fitting the percent inhibition curves with 4 parameter dose-response model using XLfit 4 software.

Sequence of Full length human recombinant HDAC11 (Q96DB2 whole entry): as above

Structure (SMILES) | IC50 [nM]
O=C(NO)c1cccc2c1CC1(CCN(c3ccc(C(F)(F)F)cc3)C1=O)C2 (stereo not drawn) [II-11, N-hydroxy-2′-oxo-1′-(4-(trifluoromethyl)phenyl)-1,3-dihydrospiro[indene-2,3′-pyrrolidine]-4-carboxamide] | > 1000
Cc1ccc(CN2CCC3(Cc4cccc(C(=O)NO)c4C3)C2=O)cc1C (stereo not drawn) [II-39, 1′-(3,4-dimethylbenzyl)-N-hydroxy-2′-oxo-1,3-dihydrospiro[indene-2,3′-pyrrolidine]-4-carboxamide] | 500 to 1000
O=C(NO)c1cccc2c1OC1(CC2)CCN(Cc2ccc(F)cc2)CC1 [II-80, 1′-(4-fluorobenzyl)-N-hydroxyspiro[chromane-2,4′-piperidine]-8-carboxamide] | > 1000
